± gives the expanded uncertainty stated by the source.
Test: mn = molality of the nth substance listed, in mol/kg
Details: 298.15 K, 101 kPa, Liquid; for speed of sound: Sing-around technique in a fixed-path interferometer; for mass density: Vibrating tube method

O=Cc1ccco1 [2-furaldehyde] + O
Details	mass density [kg/m3]	speed of sound [m/s]
m1 = 0.0542	998.113 ± 0.11	1499.1 ± 1.2
m1 = 0.0556	998.137 ± 0.11	1499.2 ± 1.2
m1 = 0.0607	998.217 ± 0.11	1499.4 ± 1.2
m1 = 0.0653	998.295 ± 0.11	1499.6 ± 1.2
m1 = 0.0686	998.351 ± 0.11	1499.7 ± 1.2
m1 = 0.075	998.453 ± 0.11	1500 ± 1.2
m1 = 0.0801	998.537 ± 0.11	1500.2 ± 1.2
m1 = 0.089	998.69 ± 0.11	1500.6 ± 1.2
m1 = 0.1095	999.037 ± 0.11	1501.4 ± 1.2
m1 = 0.1179	999.174 ± 0.11	1501.8 ± 1.2
m1 = 0.1332	999.425 ± 0.11	1502.3 ± 1.2
m1 = 0.1717	1000.07 ± 0.11	1504 ± 1.2
m1 = 0.2053	1000.62 ± 0.11	1505.3 ± 1.2
m1 = 0.2309	1001.03 ± 0.11	1506.1 ± 1.2
m1 = 0.3092	1002.32 ± 0.11	1508.9 ± 1.2
m1 = 0.3436	1002.87 ± 0.11	1510 ± 1.2
m1 = 0.4132	1003.97 ± 0.11	1512.3 ± 1.2
m1 = 0.5112	1005.51 ± 0.11	1515.2 ± 1.2
m1 = 0.5559	1006.19 ± 0.11	1516.5 ± 1.2
m1 = 0.6557	1007.7 ± 0.11	1518.7 ± 1.2
m1 = 0.8368	1010.35 ± 0.11	1522 ± 1.2
m1 = 0.9225	1011.55 ± 0.11	1523.5 ± 1.2

OCc1ccco1 [2-hydroxymethylfuran] + O
Details	mass density [kg/m3]	speed of sound [m/s]
m1 = 0.0475	997.854 ± 0.11	1498.9 ± 1.2
m1 = 0.0537	997.937 ± 0.11	1499.3 ± 1.2
m1 = 0.0559	997.967 ± 0.11	1499.4 ± 1.2
m1 = 0.0625	998.054 ± 0.11	1499.7 ± 1.2
m1 = 0.0688	998.143 ± 0.11	1500 ± 1.2
m1 = 0.0781	998.269 ± 0.11	1500.3 ± 1.2
m1 = 0.0999	998.571 ± 0.11	1501.3 ± 1.2
m1 = 0.1027	998.607 ± 0.11	1501.5 ± 1.2
m1 = 0.12	998.847 ± 0.11	1502.2 ± 1.2
m1 = 0.1433	999.158 ± 0.11	1503.3 ± 1.2
m1 = 0.1651	999.552 ± 0.11	1504.3 ± 1.2
m1 = 0.2327	1000.39 ± 0.11	1507.1 ± 1.2
m1 = 0.2468	1000.58 ± 0.11	1507.8 ± 1.2
m1 = 0.4458	1003.25 ± 0.11	1515.9 ± 1.2
m1 = 0.618	1005.5 ± 0.11	1522.3 ± 1.2
m1 = 0.8613	1008.56 ± 0.11	1530.4 ± 1.2
m1 = 1.054	1010.95 ± 0.11	1535.9 ± 1.2
m1 = 1.236	1012.93 ± 0.11	1540.5 ± 1.2
m1 = 1.441	1015.25 ± 0.11	1545.5 ± 1.2
m1 = 1.656	1017.56 ± 0.11	1550 ± 1.2
m1 = 1.835	1019.32 ± 0.11	1554 ± 1.2
m1 = 2.062	1021.73 ± 0.11	1559.4 ± 1.2
m1 = 2.545	1026.13 ± 0.12	1569.5 ± 1.2
m1 = 2.874	1028.8 ± 0.12	1577.2 ± 1.3

OCC1CCCO1 (configuration not stated) [2-tetrahydrofurylmethanol] + O
Details	mass density [kg/m3]	speed of sound [m/s]
m1 = 0.0115	997.245 ± 0.11	1497.2 ± 1.2
m1 = 0.0127	997.265 ± 0.11	1497.4 ± 1.2
m1 = 0.0141	997.289 ± 0.11	1497.6 ± 1.2
m1 = 0.0149	997.301 ± 0.11	1497.7 ± 1.2
m1 = 0.0183	997.356 ± 0.11	1498.1 ± 1.2
m1 = 0.0193	997.373 ± 0.11	1498.2 ± 1.2
m1 = 0.0223	997.421 ± 0.11	1498.4 ± 1.2
m1 = 0.0281	997.511 ± 0.11	1498.5 ± 1.2
m1 = 0.0286	997.518 ± 0.11	1498.5 ± 1.2
m1 = 0.0337	997.596 ± 0.11	1498.7 ± 1.2
m1 = 0.0441	997.835 ± 0.11	1499.3 ± 1.2
m1 = 0.0462	997.862 ± 0.11	1499.5 ± 1.2
m1 = 0.0496	997.893 ± 0.11	1499.6 ± 1.2
m1 = 0.0584	998.028 ± 0.11	1500.3 ± 1.2
m1 = 0.0686	998.155 ± 0.11	1500.9 ± 1.2
m1 = 0.0731	998.209 ± 0.11	1501.1 ± 1.2
m1 = 0.0948	998.467 ± 0.11	1502.4 ± 1.2
m1 = 0.1082	998.66 ± 0.11	1503.2 ± 1.2
m1 = 0.1478	999.071 ± 0.11	1505.6 ± 1.2
m1 = 0.2077	999.663 ± 0.11	1509 ± 1.2
m1 = 0.2552	1000.11 ± 0.11	1511.8 ± 1.2
m1 = 0.35	1000.98 ± 0.11	1517.1 ± 1.2
m1 = 0.4904	1002.2 ± 0.11	1524.9 ± 1.2
m1 = 0.678	1003.77 ± 0.11	1534.7 ± 1.2
m1 = 1.16	1007.55 ± 0.11	1557.2 ± 1.2
m1 = 1.996	1013.36 ± 0.11	1589.1 ± 1.2
m1 = 2.959	1020.27 ± 0.12	1614.9 ± 1.3
m1 = 3.175	1021.74 ± 0.12	1620.8 ± 1.3
m1 = 3.559	1024.37 ± 0.12	1630.1 ± 1.3
m1 = 5.556	1036.45 ± 0.13	1672.3 ± 1.3

Cc1ccc(C=O)o1 [5-methylfurfural] + O
Details	mass density [kg/m3]	speed of sound [m/s]
m1 = 0.0067	997.297 ± 0.11	1497 ± 1.2
m1 = 0.0069	997.3 ± 0.11	1497 ± 1.2
m1 = 0.0081	997.319 ± 0.11	1497.1 ± 1.2
m1 = 0.0083	997.323 ± 0.11	1497.2 ± 1.2
m1 = 0.0084	997.325 ± 0.11	1497.2 ± 1.2
m1 = 0.0098	997.344 ± 0.11	1497.2 ± 1.2
m1 = 0.0103	997.35 ± 0.11	1497.2 ± 1.2
m1 = 0.0109	997.355 ± 0.11	1497.3 ± 1.2
m1 = 0.0122	997.373 ± 0.11	1497.3 ± 1.2
m1 = 0.0137	997.397 ± 0.11	1497.4 ± 1.2
m1 = 0.016	997.425 ± 0.11	1497.6 ± 1.2
m1 = 0.0179	997.454 ± 0.11	1497.7 ± 1.2
m1 = 0.0223	997.516 ± 0.11	1497.9 ± 1.2
m1 = 0.0257	997.563 ± 0.11	1498.1 ± 1.2
m1 = 0.0292	997.613 ± 0.11	1498.3 ± 1.2
m1 = 0.0462	997.848 ± 0.11	1499.2 ± 1.2
m1 = 0.0557	997.966 ± 0.11	1499.6 ± 1.2
m1 = 0.0608	998.055 ± 0.11	1500 ± 1.2
m1 = 0.0825	998.35 ± 0.11	1501.1 ± 1.2
m1 = 0.1136	998.767 ± 0.11	1503 ± 1.2
m1 = 0.1363	998.986 ± 0.11	1503.8 ± 1.2
m1 = 0.1454	999.221 ± 0.11	1504.2 ± 1.2
m1 = 0.1666	999.516 ± 0.11	1505.2 ± 1.2
m1 = 0.204	1000.01 ± 0.11	1506.9 ± 1.2
m1 = 0.2877	1001.14 ± 0.11	1511 ± 1.2
